Test system: ADtg mice
Experiment: Pre- and post-synaptic density in brains of AD+ mice after immune modulation
Type: in vivo, mouse
Conditions: 13m old AD+ mice (FIG. 3E)
Experimental: ADtg mice (10 months old) received subcutaneous injections of GA [also known as Cop-1 and Copaxone®; 100 μg in phosphate-buffered saline (PBS)] or PBS alone (control group) twice a week for 1 week and then once a week for 8 weeks. For evaluation of innate immune infiltration to the brain by flow cytometry, 10-month-old ADtg mice received subcutaneous injections of GA ([…]) or PBS alone twice a week for 1 week and then once a week for 3 weeks. At the end of the study, all mice were anaesthetized and then perfused with ice-cold PBS with 0.5 mM EDTA, after which their organs were collected and analyzed or fixed in 2.5% paraformaldehyde (Sigma-Aldrich), and cryoprotected with 30% sucrose for further histological analysis. […]
To define the synaptic area in the hippocampus of ADtg and non-transgenic (wild-type) mice, three independent coronal brain sections at bregma −2.50 , −2.65, and −2.80 mm (Liang et al., 2011) per animal (n=6 mice per group) were stained with the presynaptic marker VGluT1 (encoded by Slc17a7) (Chemicon, guinea pig, 1:6000). […] Single optical section images were analyzed using the NIH ImageJ macro and batch process to quantify the synaptic area (15 optical sections/field, 15 fields/brain section, and 675 total images/brain). The average synaptic area or percentage of the area per image was calculated for each condition. […]

For glatiramer acetate [GA], the “synaptic rescue (pre- and post-synaptic areas)” value was “remarkable synaptic rescue”.
